Experimental data as given in PubChem BioAssay AID330 (DTP/NCI, 2004).
Where “and” joins values, the source holds several entries; their conditions need not be identical. Equal entries are not always repeated. Toxic doses and inconclusive results are not listed.

System: P388 leukemia ip, CD2F1 mice, survival T/C
Test: NCI In Vivo Anticancer Drug Screen. Data for tumor model P388 Leukemia (intraperitoneal) in CD2F1 (CDF1) mice
Details: endpoint: median survival time, higher = longer survival
Outline: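 Mice carrying the transplanted tumor received test compound or vehicle. Survival was recorded in each group, and the value is the treated-group measurement divided by that of the vehicle-treated control group.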

[1] = dose: 50.0 mg/kg/injection, schedule: Q01DX005 (ip), vehicle: saline with Tween-80
[2] = dose: 100.0 mg/kg/injection, schedule: Q01DX005 (ip), vehicle: saline with Tween-80
[3] = dose: 200.0 mg/kg/injection, schedule: Q01DX005 (ip), vehicle: saline with Tween-80
[4] = dose: 100.0 mg/kg/injection, schedule: Q01DX009 (ip), vehicle: saline with Tween-80
[5] = dose: 200.0 mg/kg/injection, schedule: Q01DX009 (ip), vehicle: saline with Tween-80
[6] = dose: 100.0 mg/kg/injection, schedule: Q04DX003 (ip), vehicle: saline with Tween-80
[7] = dose: 50.0 mg/kg/injection, schedule: Q01DX009 (ip), vehicle: saline with Tween-80
[8] = dose: 25.0 mg/kg/injection, schedule: Q01DX009 (ip), vehicle: saline with Tween-80

In the case of `O=c1c2ccccc2nc(-c2ccccc2Cl)n1/N=C/c1ccc(Cl)cc1Cl`, the T/C [1] is reported as 93 % of control, the T/C [2] is reported as 103 % of control and the T/C [3] is reported as 102 % of control.

`c1ccc2nc(NCCSSCCNc3cnc4ccccc4n3)cnc2c1` was tested, and the T/C [4] was 86 % of control, the T/C [5] was 86 % of control and the T/C (dose: 400.0 mg/kg/injection, schedule: Q01DX009 (ip), vehicle: saline with Tween-80) was 86 % of control.

For `CCC1=C(O)C(=O)C(C)(C)C1=O`, the T/C (dose: 50.0 mg/kg/injection, schedule: Q01DX005 (ip), vehicle: saline) was 99 % of control and 101 % of control, the T/C (dose: 100.0 mg/kg/injection, schedule: Q01DX005 (ip), vehicle: saline) was 100 % of control and 96 % of control and the T/C (dose: 200.0 mg/kg/injection, schedule: Q01DX005 (ip), vehicle: saline) was 90 % of control and 98 % of control.

For `Oc1ccc(CCNCc2ccc3c(c2)OCO3)cc1`, the T/C [6] was 99 % of control and the T/C (dose: 200.0 mg/kg/injection, schedule: Q04DX003 (ip), vehicle: saline with Tween-80) was 95 % of control.

With `CCOC(=O)N(CCCl)C(=O)C(C)C` the T/C (dose: 100.0 mg/kg/injection, schedule: Q01DX001 (ip), vehicle: saline with Tween-80) was 104 % of control, the T/C (dose: 200.0 mg/kg/injection, schedule: Q01DX001 (ip), vehicle: saline with Tween-80) was 100 % of control and the T/C (dose: 400.0 mg/kg/injection, schedule: Q01DX001 (ip), vehicle: saline with Tween-80) was 104 % of control.

With `CCOc1ccc(Nc2cc([N+](=O)[O-])ccc2C(=O)O)cc1` the T/C [7] was 91 % of control and the T/C [5] was 108 % of control.

With `CCCCCNC(=O)OCc1c(COC(=O)NCCCCC)c(-c2ccc(Cl)c(Cl)c2)n2c1CCC2` the T/C (dose: 6.25 mg/kg/injection, schedule: Q01DX009 (ip), vehicle: distilled water + Tween-80) was 113 % of control, the T/C (dose: 12.5 mg/kg/injection, schedule: Q01DX009 (ip), vehicle: distilled water + Tween-80) was 101 % of control and 110 % of control and the T/C (dose: 25.0 mg/kg/injection, schedule: Q01DX009 (ip), vehicle: distilled water + Tween-80) was 108 % of control and 116 % of control. For the same compound, the T/C (dose: 100.0 mg/kg/injection, schedule: Q01DX009 (ip), vehicle: distilled water + Tween-80) was 165 % of control.

With `CCC(C(=O)O)C(=O)O.[NH-]CC[NH-].[Pt+2]` the T/C [8] was 190 % of control, the T/C (dose: 33.0 mg/kg/injection, schedule: Q04DX003 (ip), vehicle: saline) was 120 % of control and the T/C (dose: 50.0 mg/kg/injection, schedule: Q01DX009 (ip), vehicle: Klucel (hydroxypropylcellulose) (HPC)) was 160 % of control. The T/C [7] was 218 % of control, the T/C (dose: 50.0 mg/kg/injection, schedule: Q04DX003 (ip), vehicle: saline with Tween-80) was 181 % of control and the T/C (dose: 100.0 mg/kg/injection, schedule: Q01DX009 (ip), vehicle: Klucel (hydroxypropylcellulose) (HPC)) was 205 % of control. For the same compound, the T/C [6] was 195 % of control, the T/C (dose: 200.0 mg/kg/injection, schedule: Q01DX009 (ip), vehicle: Klucel (hydroxypropylcellulose) (HPC)) was 196 % of control and the T/C (dose: 400.0 mg/kg/injection, schedule: Q04DX003 (ip), vehicle: saline) was 155 % of control.

With `CC(CO)CCC1OC2CC3C4CC=C5C=CCCC5(C)C4CCC3(C)C2C1C` (stereo unspecified) the T/C (dose: 2.25 mg/kg/injection, schedule: Q01DX005 (ip), vehicle: Klucel (hydroxypropylcellulose) (HPC)) was 107 % of control, the T/C (dose: 4.5 mg/kg/injection, schedule: Q01DX005 (ip), vehicle: Klucel (hydroxypropylcellulose) (HPC)) was 104 % of control and the T/C (dose: 9.0 mg/kg/injection, schedule: Q01DX005 (ip), vehicle: Klucel (hydroxypropylcellulose) (HPC)) was 97 % of control. The T/C (dose: 18.0 mg/kg/injection, schedule: Q01DX005 (ip), vehicle: Klucel (hydroxypropylcellulose) (HPC)) was 96 % of control and the T/C (dose: 36.0 mg/kg/injection, schedule: Q01DX005 (ip), vehicle: Klucel (hydroxypropylcellulose) (HPC)) was 124 % of control.

For `CC(C)(C)N(O)c1cccc(P(=O)(c2ccccc2)c2ccccc2)c1`, the T/C [8] was 108 % of control, the T/C [7] was 94 % of control and the T/C [4] was 92 % of control.

`O=C1CSC(c2cccc(Cl)c2)N1CCN1C(=O)CSC1c1cccc(Cl)c1` (stereo unspecified) was tested, and the T/C [1] was 100 % of control, the T/C [2] was 93 % of control and the T/C [3] was 86 % of control.

For `O=C(O)C[CH2][Sn]([Cl])([Cl])[CH2]CC(=O)O`, the T/C (dose: 50.0 mg/kg/injection, schedule: Q01DX005 (ip), vehicle: Klucel (hydroxypropylcellulose) (HPC)) was 98 % of control, the T/C (dose: 100.0 mg/kg/injection, schedule: Q01DX005 (ip), vehicle: Klucel (hydroxypropylcellulose) (HPC)) was 98 % of control and the T/C (dose: 200.0 mg/kg/injection, schedule: Q01DX005 (ip), vehicle: Klucel (hydroxypropylcellulose) (HPC)) was 91 % of control.

In the case of `CCCCCCCCCCCCC[N+]1(CC)CCCCC1`, the T/C (dose: 0.78 mg/kg/injection, schedule: Q01DX009 (ip), vehicle: saline) is reported as 105 % of control, the T/C (dose: 1.56 mg/kg/injection, schedule: Q01DX009 (ip), vehicle: saline) is reported as 118 % of control and the T/C (dose: 3.12 mg/kg/injection, schedule: Q01DX009 (ip), vehicle: saline) is reported as 110 % of control.
